Patent US20230094952A1, “Method for Culturing Hematopoietic Stem Cells” (Sumitomo Pharma Co., Ltd., priority 2019, published 2023)

Tested on: mouse long-term hematopoietic stem cells
Test: Reproducibility and concentration dependence test: 1-week culture of sorted Hoxb5-tri-mCherry mouse long-term hematopoietic stem cells, flow cytometry
Format: cell-based
Details: day 7 of culture, n=2
Procedure: Mice with insertion of a nucleic acid sequence containing three copies of a gene encoding the fluorescent protein mCherry to the C terminus of the mouse endogenous HoxB5 gene (Hoxb5-tri-mCherry) were used (triple-mCherry Hoxb5 knock-in mice; Non Patent Literature 1). The mice were housed under environmental conditions such that the room temperature and the humidity were 20 to 26° C. and 40 to 70%, respectively, under light for 12 hours and under dark for 12 hours (illumination: 8:00 a.m. to 8:00 p.m.).
Bone marrow cells were collected from the tibia, femur, humerus, and pelvis in each side of each of the mice, and gathered in a mortar. A buffer obtained by adding thermally deactivated bovine serum (manufactured by Gibco) at a final concentration of 2% and EDTA at a final concentration of 2 mM to Ca^2+-free and Mg^2+-free PBS was added, and the resultant was broken with a pestle to obtain a cell population including hematopoietic stem cells.
First, the thus-obtained cell population including hematopoietic stem cells was passed through strainers (meshes) of 100 μm, 70 μm, and 40 μm. The cell population was stained with an APC-binding anti-c-Kit (2B8) and fractionated with anti-APC magnetic beads and an LS column (both manufactured by Miltenyi Biotec) to obtain a cell population enriched with hematopoietic stem cells and progenitor cells.
Subsequently, cells being c-Kit-positive were stained with antibodies for the following cell surface markers.
Staining with the antibodies was performed at 4° C., and the cells were incubated for 30 minutes. For staining with the CD34 antibody, the cells were incubated for 90 minutes. Dead cell staining was performed with SYTOX Red Dead Cell Stain (manufactured by Life Technologies) in accordance with a method recommended by the manufacturer.
Flow cytometry analysis and cell classification (cell sorting) were performed with a FACS Aria II cell sorter (manufactured by BD Biosciences), wherein Lineage-negative, c-Kit-positive, Sca-1-positive, Flk2-negative, CD34-negative or weakly CD34-positive, CD150-positive, and mCherry-positive fractions were regarded as long-term hematopoietic stem cells, and analysis was performed with the software FlowJo (manufactured by Tree Star, Inc.).
The cells after classification were seeded in a 96-well plate. A cell culture medium was prepared by adding Stem Cell Factor (SCF, manufactured by PeproTech, Inc.) and Thrombopoietin (TPO, manufactured by PeproTech, Inc.) to StemSpan SFEM culture medium (manufactured by […] Technologies Inc.) and added in advance to a cell culture 96-well plate (manufactured by BD Biosciences) at 100 μL/well, and the cells sorted with the FACS Aria II cell sorter (BD Biosciences) were then seeded at 10 cells/well.
[…] Thereafter, the cells were cultured in a CO2 incubator under conditions of 37° C. and 5% CO2 for 1 week.
After culture, the cells were stained with the antibodies for the surface markers c-Kit and Sca-1, Ter-119, B220, CD3, CD4, CD8a, Gr-1, and CD11b, and the ratio and post-growth cell count of a KLS fraction (c-Kit^+, Lin^−, Sca-1^+) or an mCherry-positive fraction given with use of a FACS Aria II cell sorter were analyzed by using FlowJo (BD Biosciences). The mCherry-positive fraction is a cell fraction expressing the Hoxb5 gene, and the KLS fraction is a cell fraction being c-Kit-positive, Lin-negative, and Sca-1-positive, and includes hematopoietic stem cells and multipotent progenitor cells as main components. […]

| SMILES | KLS-positive rate (Table 4, compound 0.1 μM) | Viable cell count (Table 4, compound 0.1 μM) | mCherry-positive rate (Table 4, compound 0.1 μM) | KLS-positive rate (Table 4, compound 0.3 μM) | Viable cell count (Table 4, compound 0.3 μM) | mCherry-positive rate (Table 4, compound 0.3 μM) | KLS-positive rate (Table 4, compound 1 μM) | Viable cell count (Table 4, compound 1 μM) | mCherry-positive rate (Table 4, compound 1 μM) | KLS-positive rate (Table 4, compound 3 μM) | Viable cell count (Table 4, compound 3 μM) | mCherry-positive rate (Table 4, compound 3 μM) | KLS-positive rate (Table 4, compound 10 μM) | Viable cell count (Table 4, compound 10 μM) | mCherry-positive rate (Table 4, compound 10 μM) | also measured |
| --- | --- | --- | --- | --- | --- | --- | --- | --- | --- | --- | --- | --- | --- | --- | --- | --- |
| C[C@H]1[C@H](S(C)(=O)=O)O[C@@H]2O[C@@]3(C)CC[C@H]4[C@H](C)CC[C@@H]1[C@@]24OO3 [Example 1-5, (3R,5aS,6R,8aS,9R,10S,12S,12aR)-10-(Methanesulfonyl)-3,6,9-trimethyldecahydro-12H-3,12-epoxypyrano[4,3-j][1,2]benzodioxepine] | 18.2% | 443.5 cell | 11.5% | 41.7% | 221.5 cell | 8.5% | 20.0% | 308.0 cell | 4.5% | 30.8% | 184.0 cell | 41.5% | 0.0% | 1.5 cell | 0.0% | – |
| CCO[C@H]1O[C@@H]2O[C@@]3(C)CC[C@H]4[C@H](C)CC[C@@H]([C@H]1C)[C@@]24OO3 [Example 1-31, artemotil, reference compound] | 26.5% | 201.5 cell | 84.9% | 19.7% | 194.0 cell | 96.3% | 62.3% | 19.5 cell | 98.3% | 87.5% | 2.5 cell | 100.0% | 25.0% | 1.5 cell | 50.0% | KLS-positive rate (Table 3, compound 0.1 μM): 28.85%; Viable cell count (Table 3, compound 0.1 μM): 1073 cell; mCherry-positive rate (Table 3, compound 0.1 μM): 57.4%; KLS-positive rate (Table 3, compound 0.3 μM): 21.95%; Viable cell count (Table 3, compound 0.3 μM): 1529 cell; mCherry-positive rate (Table 3, compound 0.3 μM): 47.65%; KLS-positive rate (Table 3, compound 1 μM): 30.8%; Viable cell count (Table 3, compound 1 μM): 249 cell; mCherry-positive rate (Table 3, compound 1 μM): 92.85%; KLS-positive rate (Table 3, compound 3 μM): 66.65%; Viable cell count (Table 3, compound 3 μM): 8 cell; mCherry-positive rate (Table 3, compound 3 μM): 100%; KLS-positive rate (Table 3, compound 10 μM): 0%; Viable cell count (Table 3, compound 10 μM): 0 cell; mCherry-positive rate (Table 3, compound 10 μM): 0% |
| C[C@H]1[C@H](N(C)C)O[C@@H]2O[C@@]3(C)CC[C@H]4[C@H](C)CC[C@@H]1[C@@]24OO3 [Example 1-12, (3R,5aS,6R,8aS,9R,10R,12R,12aR)—N,N,3,6,9-Pentamethyldecahydro-12H-3,12-epoxypyrano[4,3-j][1,2]benzodioxepin-10-amine] | 27.2% | 450.5 cell | 7.3% | 15.8% | 262.0 cell | 15.2% | 19.3% | 431.5 cell | 8.2% | 14.4% | 217.0 cell | 19.4% | 36.6% | 234.5 cell | 12.1% | – |
| C[C@@H]1CC[C@H]2[C@@H](C)C(=O)O[C@@H]3O[C@@]4(C)CC[C@@H]1[C@]32O4 [Example 1-34, (3R,3aS,6R,6aS,9S,10aS,10bR)-3,6,9-Trimethyloctahydro-10aH-9,10b-epoxypyrano[4,3,2-jk][2]benzoxepin-2(3H)-one] | 77.3% | 136.5 cell | 11.7% | 28.4% | 389.0 cell | 18.3% | 21.8% | 713.5 cell | 15.2% | 27.7% | 268.0 cell | 14.6% | 27.5% | 70.0 cell | 0.4% | – |
| C[C@H]1[C@@H](CN)O[C@@H]2O[C@@]3(C)CC[C@H]4[C@H](C)CC[C@@H]1[C@@]24OO3 [Example 1-17, 1-[(3R,5aS,6R,8aS,9R,10S,12R,12aR)-3,6,9-Trimethyldecahydro-12H-3,12-epoxypyrano[4,3-j][1,2]benzodioxepin-10-yl]methanamine] | 15.9% | 947.0 cell | 4.9% | 16.1% | 902.0 cell | 2.5% | 19.4% | 641.5 cell | 16.1% | 24.0% | 315.0 cell | 70.1% | 51.8% | 80.0 cell | 100.0% | – |
| C[C@H]1[C@@H](C)O[C@@H]2O[C@@]3(C)CC[C@H]4[C@H](C)CC[C@@H]1[C@@]24OO3 [Example 1-6, (3R,5aS,6R,8aS,9R,10R,12R,12aR)-3,6,9,10-Tetramethyldecahydro-12H-3,12-epoxypyrano[4,3-j][1,2]benzodioxepine] | 34.8% | 147.0 cell | 2.0% | 20.9% | 190.0 cell | 15.6% | 19.8% | 183.5 cell | 24.4% | 17.6% | 215.5 cell | 80.8% | 47.8% | 37.5 cell | 98.4% | – |
| C[C@H]1[C@@H](Oc2ccccc2)O[C@@H]2O[C@@]3(C)CC[C@H]4[C@H](C)CC[C@@H]1[C@@]24OO3 [Example 1-21, (3R,5aS,6R,8aS,9R,10S,12R,12aR)-3,6,9-trimethyl-10-phenoxydecahydro-12H-3,12-epoxypyrano[4,3-j][1,2]benzodioxepine] | 0.0% | 0.0 cell | 0.0% | 0.0% | 2.0 cell | 50.0% | 0.0% | 0.5 cell | 0.0% | 0.0% | 0.5 cell | 50.0% | 0.0% | 0.5 cell | 50.0% | – |
| C[C@H]1[C@@H](O)O[C@@H]2O[C@@]3(C)CC[C@H]4[C@H](C)CC[C@@H]1[C@@]24OO3 [Example 1-29, artenimol, reference compound] | 19.4% | 469.5 cell | 13.3% | 13.7% | 215.0 cell | 6.0% | 11.3% | 248.0 cell | 3.9% | 80.0% | 4.5 cell | 100.0% | 50.0% | 0.5 cell | 50.0% | KLS-positive rate (Table 3, compound 0.1 μM): 8.92%; Viable cell count (Table 3, compound 0.1 μM): 1563 cell; mCherry-positive rate (Table 3, compound 0.1 μM): 16.9%; KLS-positive rate (Table 3, compound 0.3 μM): 18%; Viable cell count (Table 3, compound 0.3 μM): 2268 cell; mCherry-positive rate (Table 3, compound 0.3 μM): 42.4%; KLS-positive rate (Table 3, compound 1 μM): 20.05%; Viable cell count (Table 3, compound 1 μM): 666.5 cell; mCherry-positive rate (Table 3, compound 1 μM): 84.8%; KLS-positive rate (Table 3, compound 3 μM): 0%; Viable cell count (Table 3, compound 3 μM): 0 cell; mCherry-positive rate (Table 3, compound 3 μM): 0%; KLS-positive rate (Table 3, compound 10 μM): 0%; Viable cell count (Table 3, compound 10 μM): 0 cell; mCherry-positive rate (Table 3, compound 10 μM): 0% |
